Experimental data reported in US8940769B2, “Biaryl benzoimidazole derivatives and pharmaceutical composition comprising the same” (Daewoong Pharmaceutical Co., Ltd., priority 2006, dated 2015).

Target: T1, human vanilloid receptor VR-1 (hVR1) (Homo sapiens, UniProt Q8NER1)
T1 construct: expressed in transfected cells; host or cells: HEK293 Tet-on cells (hVR1-HEK293), expression induced with doxycycline
Assay: Calcium influx test of vanilloid receptor (capsaicin-induced, Fluo-3/AM, hVR1-HEK293 cells)
Type: cell-based
Details: for inhibition at 0.2 µM / Inhibitory effect (%) on calcium influx: single concentration of compound 200 nM, 1 μM capsaicin; for inhibition at 0.2 µM: read-out: Inhibitory effect (%) on calcium influx; for IC50: calcium influx induced by 1 μM capsaicin, read-out: Inhibitory effect IC50 (nM) on calcium influx
Experimental: In order to measure an activity of the biaryl benzoimidazole derivative of the invention as an antagonist, a calcium influx test was performed.
An hVR1-HEK293 cell line is a cell line, in which a Human Embryonic Kidney (HEK) 293 Tet-on cell is transformed with a human vanilloid-1 gene (pTRE2hyg-hVR1, 7.8 kb). The cell line can regulate a VR-1 expression, depending on the administration of a tetracycline analogue, doxycycline. At two days before the calcium influx test, the cell line was cultured in media containing doxycycline to induce the VR-1 expression, and then used. First, the hVR1-HEK293 cells were cultured in T75 flasks to have a density of about 80%, and then detached from the bottom of the flasks by using trypsin. The detached cells were centrifuged and collected. Then, the cells were suspended in media containing 1 μg/mL doxycycline, and diluted to have a concentration of 2×10^5 to 4×10^5 cells/mL. 100 μL of the suspended cells were added to each well of 96-well black plate, cultured at 37° C. and 5% CO2 cell incubator for two days, and then used in the calcium influx test.
The compound was dissolved in dimethyl sulfoxide (DMSO), and then used for the calcium influx test.
In order to measure the calcium influx […], the cells were cultured in a solution containing Fluo-3/AM, which is a calcium indicator, at 37° C. for 90 minutes, so as to be permeated by a fluorescent dye. […] 193 μL D-PBS were added to each well, and then the compound was added thereto in various concentrations. To measure an activity as an antagonist, the cells were treated with 1 μM capsaicin to stimulate the calcium influx. The inhibitory effect of the compound when calcium influx was induced by 1 μM capsaicin was measured depending on its concentration using a fluorescence spectrometer, and the obtained data were substituted into a hill equation to analyze the values.
The inhibitory effect on calcium influx was measured with a single concentration of the compounds of the invention (200 nM), and the result thereof are shown in Table 2.

T1 sequence (Q8NER1 whole entry): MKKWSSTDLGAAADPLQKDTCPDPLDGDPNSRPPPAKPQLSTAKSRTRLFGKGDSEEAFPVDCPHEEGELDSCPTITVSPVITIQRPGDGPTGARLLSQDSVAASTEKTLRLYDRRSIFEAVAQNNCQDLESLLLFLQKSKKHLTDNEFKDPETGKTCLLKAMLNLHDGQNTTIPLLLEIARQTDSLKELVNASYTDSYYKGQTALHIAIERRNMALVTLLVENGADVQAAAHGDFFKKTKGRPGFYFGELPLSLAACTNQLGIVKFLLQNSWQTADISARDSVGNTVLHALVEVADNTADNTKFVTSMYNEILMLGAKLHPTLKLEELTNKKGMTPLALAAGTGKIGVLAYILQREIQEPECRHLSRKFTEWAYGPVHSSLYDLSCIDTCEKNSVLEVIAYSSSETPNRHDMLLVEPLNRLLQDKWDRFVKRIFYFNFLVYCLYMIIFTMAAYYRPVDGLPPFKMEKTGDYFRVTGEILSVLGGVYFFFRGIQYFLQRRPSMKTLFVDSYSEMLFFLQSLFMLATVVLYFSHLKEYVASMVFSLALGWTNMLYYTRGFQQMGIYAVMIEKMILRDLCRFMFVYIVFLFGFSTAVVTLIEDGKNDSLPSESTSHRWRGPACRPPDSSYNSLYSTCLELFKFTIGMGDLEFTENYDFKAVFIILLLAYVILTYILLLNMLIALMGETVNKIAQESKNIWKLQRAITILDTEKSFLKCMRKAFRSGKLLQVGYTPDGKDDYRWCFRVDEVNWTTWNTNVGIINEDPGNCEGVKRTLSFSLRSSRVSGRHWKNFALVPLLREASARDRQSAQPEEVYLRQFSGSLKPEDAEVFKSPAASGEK

inhibition at 0.2 µM [%] | IC50 [nM] | Inhibitory effect (%) on calcium influx [%] | SMILES
5 | – | – | OCc1cnc(-c2ccc(-c3nc4ccc(N5CCOCC5)cc4[nH]3)cc2)c(Cl)c1 [Compound 26, {5-chloro-6-[4-(6-morpholin-4-yl-1H-benzoimidazol-2-yl)-phenyl]-pyridin-3-yl}-methanol]
4 | – | – | CN1CCN(c2ccc3nc(-c4ccc(-c5ncc(CO)cc5Cl)cc4)[nH]c3c2)CC1 [Compound 27, (5-chloro-6-{4-[6-(4-methyl-piperazin-1-yl)-1H-benzoimidazol-2-yl]-phenyl}-pyridin-3-yl)-methanol]
2.8 | 181 | – | OCc1cnc(-c2ccc(-c3nc4ccc(C(F)(F)F)cc4[nH]3)cc2)c(Cl)c1 [Compound 28, {5-chloro-6-[4-(6-trifluoromethyl-1H-benzoimidazol-2-yl)-phenyl]-pyridin-3-yl}-methanol]
27.8 | 171 | – | OCc1cnc(-c2ccc(-c3nc4ccc(Br)cc4[nH]3)cc2)c(Cl)c1 [Compound 30, {6-[4-(6-bromo-1H-benzoimidazol-2-yl)-phenyl]-5-chloro-pyridin-3-yl}-methanol]
1.7 | – | – | OCc1cnc(-c2ccc(-c3nc4ncc(Br)cc4[nH]3)cc2)c(Cl)c1 [Compound 31, {6-[4-(6-bromo-1H-imidazo[4,5-b]pyridin-2-yl)-phenyl]-5-chloro-pyridin-3-yl}-methanol]
6 | – | – | OCc1cnc(-c2ccc(-c3nc4c(Br)cc(C(F)(F)F)cc4[nH]3)cc2)c(Cl)c1 [Compound 32, {6-[4-(4-bromo-6-trifluoromethyl-1H-benzoimidazol-2-yl)-phenyl]-5-chloro-pyridin-3-yl}-methanol]
4.7 | – | – | OCc1cnc(-c2ccc(-c3nc4c(Br)cc(Br)cc4[nH]3)cc2)c(Cl)c1 [Compound 33, {5-chloro-6-[4-(4,6-dibromo-1H-benzoimidazol-2-yl)-phenyl]-pyridin-3-yl}-methanol]
13 | – | – | FC(F)(F)c1ccc2nc(-c3ccc(-c4ncc(CBr)cc4Cl)cc3)[nH]c2c1 [Compound 34, 2-[4-(5-bromomethyl-3-chloro-pyridin-2-yl)-phenyl]-6-trifluoromethyl-1H-benzoimidazole]
59.6 | – | – | CC(C)(C)c1ccc2nc(-c3ccc(-c4ncc(CBr)cc4Cl)cc3)[nH]c2c1 [Compound 35, 2-[4-(5-bromomethyl-3-chloro-pyridin-2-yl)-phenyl]-6-tert-butyl-1H-benzoimidazole]
9.6 | – | – | Clc1cc(CBr)cnc1-c1ccc(-c2nc3ccc(Br)cc3[nH]2)cc1 [Compound 36, 6-bromo-2-[4-(5-bromomethyl-3-chloro-pyridin-2-yl)-phenyl]-1H-benzoimidazole]
5.3 | – | – | C=Cc1cnc(-c2ccc(-c3nc4ccc(C(F)(F)F)cc4[nH]3)cc2)c(Cl)c1 [Compound 37, 2-[4-(3-chloro-5-vinyl-pyridin-2-yl)-phenyl]-6-trifluoromethyl-1H-benzoimidazole]
11.7 | – | – | C=Cc1cnc(-c2ccc(-c3nc4ccc(C(C)(C)C)cc4[nH]3)cc2)c(Cl)c1 [Compound 38, 6-tert-butyl-2-[4-(3-chloro-5-vinyl-pyridin-2-yl)-phenyl]-1H-benzoimidazole]
3.1 | – | – | C=Cc1cnc(-c2ccc(-c3nc4ccc(Br)cc4[nH]3)cc2)c(Cl)c1 [Compound 39, 6-bromo-2-[4-(3-chloro-5-vinyl-pyridin-2-yl)-phenyl]-1H-benzoimidazole]
-2.1 | – | – | C=Cc1cnc(-c2ccc(-c3nc4c(Br)cc(C(F)(F)F)cc4[nH]3)cc2)c(Cl)c1 [Compound 41, 4-bromo-2-[4-(3-chloro-5-vinyl-pyridin-2-yl)-phenyl]-6-trifluoromethyl-1H-benzoimidazole]
0.9 | – | – | C=Cc1cnc(-c2ccc(-c3nc4ccc(Cl)cc4[nH]3)cc2)c(Cl)c1 [Compound 42, 6-chloro-2-[4-(3-chloro-5-vinyl-pyridin-2-yl)-phenyl]-1H-benzoimidazole]
-3.1 | – | – | O=C(O)c1cnc(-c2ccc(-c3nc4ccc(C(F)(F)F)cc4[nH]3)cc2)c(Cl)c1 [Compound 43, 5-chloro-6-[4-(6-trifluoromethyl-1H-benzoimidazol-2-yl)-phenyl]-nicotinic acid]
-1 | – | – | CC(C)(C)c1ccc2nc(-c3ccc(-c4ncc(C(=O)O)cc4Cl)cc3)[nH]c2c1 [Compound 44, 6-[4-(6-tert-butyl-1H-benzoimidazol-2-yl)-phenyl]-5-chloro-nicotinic acid]
3.3 | – | – | O=C(O)c1cnc(-c2ccc(-c3nc4ccc(Br)cc4[nH]3)cc2)c(Cl)c1 [Compound 45, 6-[4-(6-bromo-1H-benzoimidazol-2-yl)-phenyl]-5-chloro-nicotinic acid]
7.2 | – | – | O=C(O)c1cnc(-c2ccc(-c3nc4ncc(Br)cc4[nH]3)cc2)c(Cl)c1 [Compound 46, 6-[4-(6-bromo-1H-imidazo[4,5-b]pyridin-2-yl)-phenyl]-5-chloro-nicotinic acid]
5.7 | – | – | O=C(O)c1cnc(-c2ccc(-c3nc4c(Br)cc(C(F)(F)F)cc4[nH]3)cc2)c(Cl)c1 [Compound 47, 6-[4-(4-bromo-6-trifluoromethyl-1H-benzoimidazol-2-yl)-phenyl]-5-chloro-nicotinic acid]
1.1 | – | – | COC(=O)c1cnc(-c2ccc(-c3nc4ncc(Br)cc4[nH]3)cc2)c(Cl)c1 [Compound 51, 6-[4-(6-bromo-1H-imidazo[4,5-b]pyridin-2-yl)-phenyl]-5-chloro-nicotinic acid methyl ester]
20 | – | – | COC(=O)c1cnc(-c2ccc(-c3nc4c(Br)cc(C(F)(F)F)cc4[nH]3)cc2)c(Cl)c1 [Compound 52, 6-[4-(4-bromo-6-trifluoromethyl-1H-benzoimidazol-2-yl)-phenyl]-5-chloro-nicotinic acid methyl ester]
14.6 | 319 | – | CC(=O)OCc1cnc(-c2ccc(-c3nc4ccc(C(C)(C)C)cc4[nH]3)cc2)c(Cl)c1 [Compound 54, acetic acid 6-[4-(6-tert-butyl-1H-benzoimidazol-2-yl)-phenyl]-5-chloro-pyridin-3-yl methyl ester]
– | – | 0.9 | CC(=O)OCc1cnc(-c2ccc(-c3nc4ccc(Br)cc4[nH]3)cc2)c(Cl)c1 [Compound 55, acetic acid 6-[4-(6-bromo-1H-benzoimidazol-2-yl)-phenyl]-5-chloro-pyridin-3-yl methyl ester]
– | – | 6.5 | CC(=O)OCc1cnc(-c2ccc(-c3nc4ncc(Br)cc4[nH]3)cc2)c(Cl)c1 [Compound 56, acetic acid 6-[4-(6-bromo-1H-imidazo[4,5-b]pyridin-2-yl)-phenyl]-5-chloro-pyridin-3-yl methyl ester]
– | – | 16.9 | CC(=O)OCc1cnc(-c2ccc(-c3nc4c(Br)cc(C(F)(F)F)cc4[nH]3)cc2)c(Cl)c1 [Compound 57, acetic acid 6-[4-(4-bromo-6-trifluoromethyl-1H-benzoimidazol-2-yl)-phenyl]-5-chloro-pyridin-3-yl methyl ester]
39.1 | 94.5 | – | O=Cc1cnc(-c2ccc(-c3nc4ccc(C(F)(F)F)cc4[nH]3)cc2)c(Cl)c1 [Compound 58, 5-chloro-6-[4-(6-trifluoromethyl-1H-benzoimidazol-2-yl)-phenyl]-pyridine-3-carbaldehyde]
